Where two headings read alike, the source gives them in different places.
Tests used:
Type in all cases: physicochemical
[1] = Hygroscopicity test in condition of 66% RH (20° C.)
Experimental: Each test sample of an amorphous compound 1 prepared in a modification method, an amorphous compound 2 obtained by forming a free base of the amorphous compound 1 into hydrochloride in the same method as in Example 1 of Patent Literature 1, a crystal of the compound 1, which was prepared by the method described in Example 1 of the present specification, was charged into a desiccator at a humidity of 66% RH that was prepared by an aqueous saturated sodium nitrite solution by each amount of 100 mg and left stood at 20° C. Change in weights of each test sample was measured with time and a weight increase ratio was calculated.

[2] = Stability test in (sealed) condition at 60° C., purity by HPLC; details: for Purity (60° C., sealed) After 4 weeks: sealed brown glass bottle; for Purity (60° C., sealed) Initial stage value: before storage
Experimental: Each test sample of an amorphous compound 1 prepared by a modification method, an amorphous compound 2 obtained by forming a free base of the amorphous compound 1 into hydrochloride in the same method as in Example 1 of Patent Literature 1, a crystal of the compound 1, which was prepared by the method described in Example 1 of the present specification, was charged into a brown glass bottle by each amount of 10 mg and preserved at 60° C., and the purities were compared after 4 weeks. […] Not that the purity measurement was carried out in the following conditions.
Column: Develosil CN-5 (Nomura Chemical), 250 mm×4.6 mmφ
Mobile phase: 20 mM NaH2PO4 buffer (pH 6.9)/MeCN=80/20
Wavelength: UV 247 nm and 220 nm
Concentration of test sample: 100 μg/ml (H2O)

[3] = Solubility of the crystal in water; details: for solubility: 20 °C, thermodynamic from solid
Experimental: 1. The crystal has peaks around at 9.8°, 17.4°, 18.6°, 25.3°, and 25.8° as diffraction angles represented by 2θ in the powder X-ray diffraction pattern. 2. The crystal has absorption recognized around at wave numbers of 3340 cm^−1, 1664 cm^−1, and 1654 cm^−1 in the infrared absorption spectrum. 3. The crystal has a heat adsorption peak around at 120° C. in the differential scanning calorimetry (DSC). 4. The crystal has a degree of solubility to water of 1 g/ml or higher and the solubility is classified into “very soluble” according to the Japanese Pharmacopoeia.
Solubility (20° C.): >1 g/ml (very soluble)

[4] = 66% RH, 20° C., after 7 days, listed as amorphous compound 1
[5] = 66% RH, 20° C., after 7 days, listed as crystal of the compound 1

Cc1cc2ncc(C(=O)NCC(C)(C)NCC(=O)N3CCC[C@H]3C#N)cn2n1 [Amorphous compound 1, N-[2-({2-[(2S)-2-cyanopyrrolidine-1-yl]-2-oxoethyl}amino)-2-methylpropyl]-2-methylpyrazolo[1,5-a]pyrimidine-6-carboxamide]
Weight increase ratio (66% RH, 20° C.) After 7 days ([1]; 66% RH, 20° C., after 7 days): 1.7% | purity After 7 days (66% RH, 20° C.) ([1]; 66% RH, 20° C., after 7 days): 99.8% | Weight increase ratio (66% RH, 20° C.) After 7 days [1, 4]: 1.7% | purity After 7 days (66% RH, 20° C.) [1, 4]: 99.8% | Weight increase ratio (66% RH, 20° C.) Initial stage value [1]: 0 | purity, Initial stage value (66% RH, 20° C. test) [1]: 100.0% | Purity (60° C., sealed) After 4 weeks ([2]; 60° C., after 4 weeks): 99.4% | Purity (60° C., sealed) After 4 weeks ([2]; 60° C., after 4 weeks, listed as amorphous compound 1): 99.4% | impurity / area value of an impurity peak, initial stage [2]: not observed to contain an impurity | Purity (60° C., sealed) Initial stage value [2]: 100.0%

Cc1cc2ncc(C(=O)NCC(C)(C)NCC(=O)N3CCC[C@H]3C#N)cn2n1 [Amorphous compound 2]
Weight increase ratio (66% RH, 20° C.) After 7 days ([1]; 66% RH, 20° C., after 7 days): 1.7% | purity After 7 days (66% RH, 20° C.) ([1]; 66% RH, 20° C., after 7 days): 90.5% | Weight increase ratio (66% RH, 20° C.) Initial stage value [1]: 0 | purity, Initial stage value (66% RH, 20° C. test) [1]: 97.9% | Purity (60° C., sealed) After 4 weeks ([2]; 60° C., after 4 weeks): 96.1% | Purity (60° C., sealed) After 4 weeks ([2]; 60° C., after 4 weeks, listed as amorphous compound 2): 96.1% | area value of an impurity peak after 4 weeks ([2]; 60° C., sealed, after 4 weeks): 3.1% | impurity / area value of an impurity peak, initial stage [2]: 0.6% | Purity (60° C., sealed) Initial stage value [2]: 98.8% | Purity (60° C., sealed) Initial stage value ([2]; listed as amorphous compound 2): 98.8%

Cc1cc2ncc(C(=O)NCC(C)(C)NCC(=O)N3CCC[C@H]3C#N)cn2n1 [Crystal of compound 1, N-[2-({2-[(2S)-2-cyanopyrrolidine-1-yl]-2-oxoethyl}amino)-2-methylpropyl]-2-methylpyrazolo[1,5-a]pyrimidine-6-carboxamide]
Solubility (20° C.) class ([3]; 20° C.): very soluble | solubility class according to the Japanese Pharmacopoeia ([3]; water): very soluble | solubility ([3]; water, water, 20° C., read-out: Solubility (20° C.)): > 1000 mg/mL | solubility ([3]; water, water, water, read-out: degree of solubility to water): ≥ 1000 mg/mL | Weight increase ratio (66% RH, 20° C.) After 7 days ([1]; 66% RH, 20° C., after 7 days): 0.01% | hygroscopicity (in words) ([1]; 66% RH, 20° C., after 7 days): hygroscopicity was not observed | purity After 7 days (66% RH, 20° C.) ([1]; 66% RH, 20° C., after 7 days): 100.0% | Weight increase ratio (66% RH, 20° C.) After 7 days [1, 5]: 0.01% | purity After 7 days (66% RH, 20° C.) [1, 5]: change in the purity was also not recognized | Weight increase ratio (66% RH, 20° C.) Initial stage value [1]: 0 | purity, Initial stage value (66% RH, 20° C. test) [1]: 100.0% | Purity (60° C., sealed) After 4 weeks ([2]; 60° C., after 4 weeks): 100.0% | Purity (60° C., sealed) After 4 weeks ([2]; 60° C., after 4 weeks, listed as crystal of the compound 1): not changed | impurity / area value of an impurity peak, initial stage [2]: not observed to contain an impurity | Purity (60° C., sealed) Initial stage value [2]: 100.0%

— patent publication US20150239890A1, “CRYSTAL OF N-[2-(AMINO)-2-METHYLPROPYL]-2-METHYLPYRAZOLO[1,5-A]PYRIMIDINE-6-CARBOXAMIDE” (SANWA KAGAKU KENKYUSHO CO., LTD., priority 2012, published 2015)
